Converted amounts (≈) assume the structure as drawn.
Key:
Assay type in all cases: functional
[1] = system: Mycobacterium tuberculosis; test: Antimycobacterial activity against Mycobacterium tuberculosis H37Rv ATCC 27294 after 3 days by microplate Alamar Blue assay; settings: H37Rv ATCC 27294, 72 h
Escherichia coli [2] = test: Antibacterial activity against Escherichia coli ATCC 25922 after 18 to 24 hrs by CLSI M100-S11 method
Escherichia coli [3] = test: Antibacterial activity against extended-spectrum beta-lactamase-producing Escherichia coli 14-1 after 18 to 24 hrs by CLSI M100-S11 method
Escherichia coli [4] = test: Antibacterial activity against extended-spectrum beta-lactamase-producing Escherichia coli 14-2 after 18 to 24 hrs by CLSI M100-S11 method
Escherichia coli [5] = test: Antibacterial activity against Escherichia coli 14-1 after 18 to 24 hrs by CLSI M100-S11 method
Escherichia coli [6] = test: Antibacterial activity against Escherichia coli 14-2 after 18 to 24 hrs by CLSI M100-S11 method
Klebsiella pneumoniae [7] = test: Antibacterial activity against extended-spectrum beta-lactamase-producing Klebsiella pneumoniae 14-17 after 18 to 24 hrs by CLSI M100-S11 method
Klebsiella pneumoniae [8] = test: Antibacterial activity against extended-spectrum beta-lactamase-producing Klebsiella pneumoniae 14-18 after 18 to 24 hrs by CLSI M100-S11 method
Klebsiella pneumoniae [9] = test: Antibacterial activity against extended-spectrum beta-lactamase-producing Klebsiella pneumoniae 14-19 after 18 to 24 hrs by CLSI M100-S11 method
Klebsiella pneumoniae [10] = test: Antibacterial activity against Klebsiella pneumoniae 14-1 after 18 to 24 hrs by CLSI M100-S11 method
Klebsiella pneumoniae [11] = test: Antibacterial activity against Klebsiella pneumoniae 14-2 after 18 to 24 hrs by CLSI M100-S11 method
Klebsiella pneumoniae [12] = test: Antibacterial activity against Klebsiella pneumoniae 14-3 after 18 to 24 hrs by CLSI M100-S11 method
Klebsiella pneumoniae [13] = test: Antibacterial activity against Klebsiella pneumoniae 14-4 after 18 to 24 hrs by CLSI M100-S11 method
Pseudomonas aeruginosa [14] = test: Antibacterial activity against Pseudomonas aeruginosa ATCC 27853 after 18 to 24 hrs by CLSI M100-S11 method
Pseudomonas aeruginosa [15] = test: Antibacterial activity against Pseudomonas aeruginosa 14-9 after 18 to 24 hrs by CLSI M100-S11 method
Pseudomonas aeruginosa [16] = test: Antibacterial activity against Pseudomonas aeruginosa 14-14 after 18 to 24 hrs by CLSI M100-S11 method
Pseudomonas aeruginosa [17] = test: Antibacterial activity against Pseudomonas aeruginosa 14-15 after 18 to 24 hrs by CLSI M100-S11 method
Pseudomonas aeruginosa [18] = test: Antibacterial activity against Pseudomonas aeruginosa 14-16 after 18 to 24 hrs by CLSI M100-S11 method
Pseudomonas aeruginosa [19] = test: Antibacterial activity against Pseudomonas aeruginosa 14-19 after 18 to 24 hrs by CLSI M100-S11 method
Staphylococcus aureus [20] = test: Antibacterial activity against Staphylococcus aureus CMCC 26003 after 18 to 24 hrs by CLSI M100-S11 method
Staphylococcus aureus [21] = test: Antibacterial activity against methicillin-sensitive Staphylococcus aureus 14-2 after 18 to 24 hrs by CLSI M100-S11 method
Staphylococcus aureus [22] = test: Antibacterial activity against methicillin-sensitive Staphylococcus aureus 14-3 after 18 to 24 hrs by CLSI M100-S11 method
Staphylococcus aureus [23] = test: Antibacterial activity against methicillin-sensitive Staphylococcus aureus 14-4 after 18 to 24 hrs by CLSI M100-S11 method
Staphylococcus aureus [24] = test: Antibacterial activity against methicillin-resistant Staphylococcus aureus 14-4 after 18 to 24 hrs by CLSI M100-S11 method
Staphylococcus aureus [25] = test: Antibacterial activity against methicillin-resistant Staphylococcus aureus 14-5 after 18 to 24 hrs by CLSI M100-S11 method
[26] = system: Staphylococcus epidermidis; test: Antibacterial activity against methicillin-sensitive Staphylococcus epidermidis 14-2 after 18 to 24 hrs by CLSI M100-S11 method
[27] = system: Staphylococcus epidermidis; test: Antibacterial activity against methicillin-sensitive Staphylococcus epidermidis 14-4 after 18 to 24 hrs by CLSI M100-S11 method
[28] = system: Staphylococcus epidermidis; test: Antibacterial activity against methicillin-sensitive Staphylococcus epidermidis 14-6 after 18 to 24 hrs by CLSI M100-S11 method
[29] = system: Staphylococcus epidermidis; test: Antibacterial activity against methicillin-resistant Staphylococcus epidermidis 14-22 after 18 to 24 hrs by CLSI M100-S11 method
[30] = system: Staphylococcus epidermidis; test: Antibacterial activity against methicillin-resistant Staphylococcus epidermidis 14-37 after 18 to 24 hrs by CLSI M100-S11 method
[31] = system: Staphylococcus epidermidis; test: Antibacterial activity against methicillin-resistant Staphylococcus epidermidis 14-39 after 18 to 24 hrs by CLSI M100-S11 method
Streptococcus pneumoniae = test: Antibacterial activity against Streptococcus pneumoniae ATCC 19615 after 18 to 24 hrs by CLSI M100-S11 method
Enterococcus faecium [32] = test: Antibacterial activity against Enterococcus faecium 14-1 after 18 to 24 hrs by CLSI M100-S11 method
Enterococcus faecium [33] = test: Antibacterial activity against Enterococcus faecium 14-2 after 18 to 24 hrs by CLSI M100-S11 method
Enterococcus faecalis [34] = test: Antibacterial activity against Enterococcus faecalis 14-1 after 18 to 24 hrs by CLSI M100-S11 method
Enterococcus faecalis [35] = test: Antibacterial activity against Enterococcus faecalis 14-2 after 18 to 24 hrs by CLSI M100-S11 method
Enterococcus faecalis [36] = test: Antibacterial activity against Enterococcus faecalis 14-3 after 18 to 24 hrs by CLSI M100-S11 method

Row | SMILES | MIC [1] [µg/mL] | MIC (Escherichia coli [2]) [µg/mL] | MIC (Escherichia coli [3]) [µg/mL] | MIC (Escherichia coli [4]) [µg/mL] | MIC (Escherichia coli [5]) [µg/mL] | MIC (Escherichia coli [6]) [µg/mL] | MIC (Klebsiella pneumoniae [7]) [µg/mL] | MIC (Klebsiella pneumoniae [8]) [µg/mL] | MIC (Klebsiella pneumoniae [9]) [µg/mL] | MIC (Klebsiella pneumoniae [10]) [µg/mL] | MIC (Klebsiella pneumoniae [11]) [µg/mL] | MIC (Klebsiella pneumoniae [12]) [µg/mL] | MIC (Klebsiella pneumoniae [13]) [µg/mL] | MIC (Pseudomonas aeruginosa [14]) [µg/mL] | MIC (Pseudomonas aeruginosa [15]) [µg/mL] | MIC (Pseudomonas aeruginosa [16]) [µg/mL] | MIC (Pseudomonas aeruginosa [17]) [µg/mL] | MIC (Pseudomonas aeruginosa [18]) [µg/mL] | MIC (Pseudomonas aeruginosa [19]) [µg/mL] | MIC (Staphylococcus aureus [20]) [µg/mL] | also measured
1 | NC[C@@H]1/C(=N/OCc2ccccc2)CN1c1nc2c(cc1F)c(=O)c(C(=O)O)cn2-c1nc(N)c(F)cc1F | > 32 | 8 (≈ 14.8 µM) | 128 (≈ 237 µM) | > 128 | > 128 | > 128 | > 128 | 128 (≈ 237 µM) | > 128 | > 128 | > 128 | > 128 | > 128 | 128 (≈ 237 µM) | 128 (≈ 237 µM) | 128 (≈ 237 µM) | 128 (≈ 237 µM) | 128 (≈ 237 µM) | 128 (≈ 237 µM) | 4 (≈ 7.41 µM) | MIC (Staphylococcus aureus [21]): 4 µg/mL (≈ 7.41 µM); MIC (Staphylococcus aureus [22]): 8 µg/mL (≈ 14.8 µM); MIC (Staphylococcus aureus [23]): 4 µg/mL (≈ 7.41 µM); MIC (Staphylococcus aureus [24]): > 128 µg/mL; MIC (Staphylococcus aureus [25]): > 128 µg/mL; MIC [26]: > 128 µg/mL; MIC [27]: > 128 µg/mL; MIC [28]: > 128 µg/mL; MIC [29]: > 128 µg/mL; MIC [30]: > 128 µg/mL; MIC [31]: > 133 µg/mL; MIC (Streptococcus pneumoniae): 64 µg/mL (≈ 119 µM); MIC (Enterococcus faecium [32]): > 128 µg/mL; MIC (Enterococcus faecium [33]): 32 µg/mL (≈ 59.3 µM); MIC (Enterococcus faecalis [34]): > 128 µg/mL; MIC (Enterococcus faecalis [35]): > 128 µg/mL; MIC (Enterococcus faecalis [36]): > 128 µg/mL
2 | CCO/N=C1\CN(c2nc3c(cc2F)c(=O)c(C(=O)O)cn3-c2nc(N)c(F)cc2F)[C@H]1CN | > 32 | 2 (≈ 4.19 µM) | 64 (≈ 134 µM) | > 128 | > 128 | > 128 | > 128 | 64 (≈ 134 µM) | > 128 | > 128 | > 128 | > 128 | 128 (≈ 268 µM) | 16 (≈ 33.5 µM) | 32 (≈ 67 µM) | 64 (≈ 134 µM) | 64 (≈ 134 µM) | 64 (≈ 134 µM) | 64 (≈ 134 µM) | 2 (≈ 4.19 µM) | MIC (Staphylococcus aureus [21]): 4 µg/mL (≈ 8.38 µM); MIC (Staphylococcus aureus [22]): 8 µg/mL (≈ 16.8 µM); MIC (Staphylococcus aureus [23]): 4 µg/mL (≈ 8.38 µM); MIC (Staphylococcus aureus [24]): > 128 µg/mL; MIC (Staphylococcus aureus [25]): > 128 µg/mL; MIC [26]: > 128 µg/mL; MIC [27]: 64 µg/mL (≈ 134 µM); MIC [28]: 128 µg/mL (≈ 268 µM); MIC [29]: > 128 µg/mL; MIC [30]: > 128 µg/mL; MIC [31]: > 129 µg/mL; MIC (Streptococcus pneumoniae): 32 µg/mL (≈ 67 µM); MIC (Enterococcus faecium [32]): > 128 µg/mL; MIC (Enterococcus faecium [33]): 32 µg/mL (≈ 67 µM); MIC (Enterococcus faecalis [34]): > 128 µg/mL; MIC (Enterococcus faecalis [35]): > 128 µg/mL; MIC (Enterococcus faecalis [36]): > 128 µg/mL
3 | CO/N=C1\CCN(c2c(F)cc3c(=O)c(C(=O)O)cn(-c4nc(N)c(F)cc4F)c3c2Cl)CC1N (stereo unspecified) | > 32 | 1 (≈ 1.96 µM) | 64 (≈ 125 µM) | > 128 | > 128 | > 128 | > 128 | 128 (≈ 251 µM) | > 128 | > 128 | > 128 | > 128 | > 128 | 16 (≈ 31.3 µM) | 64 (≈ 125 µM) | 64 (≈ 125 µM) | 64 (≈ 125 µM) | 128 (≈ 251 µM) | 128 (≈ 251 µM) | 0.5 (≈ 0.979 µM) | MIC (Staphylococcus aureus [21]): 0.5 µg/mL (≈ 0.979 µM); MIC (Staphylococcus aureus [22]): 0.25 µg/mL (≈ 0.489 µM); MIC (Staphylococcus aureus [23]): 0.5 µg/mL (≈ 0.979 µM); MIC (Staphylococcus aureus [24]): > 128 µg/mL; MIC (Staphylococcus aureus [25]): > 128 µg/mL; MIC [26]: > 128 µg/mL; MIC [27]: 128 µg/mL (≈ 251 µM); MIC [28]: 128 µg/mL (≈ 251 µM); MIC [29]: > 128 µg/mL; MIC [30]: > 128 µg/mL; MIC [31]: > 128 µg/mL; MIC (Streptococcus pneumoniae): 64 µg/mL (≈ 125 µM); MIC (Enterococcus faecium [32]): > 128 µg/mL; MIC (Enterococcus faecium [33]): 16 µg/mL (≈ 31.3 µM); MIC (Enterococcus faecalis [34]): > 128 µg/mL; MIC (Enterococcus faecalis [35]): > 128 µg/mL; MIC (Enterococcus faecalis [36]): > 128 µg/mL

Reference: ChEMBL document CHEMBL3797178, “Synthesis, antimycobacterial and antibacterial activity of 1-(6-amino-3,5-difluoropyridin-2-yl)fluoroquinolone derivatives containing an oxime functional moiety” (2016)
